Experimental data published in US20200037600A1, “MESOIONIC IMIDAZOPYRIDINES AS INSECTICIDES” (Bayer Aktiengesellschaft, priority 2017, published 2020).

Columns and labels:
Type in all cases: in vivo
Ctenocephalides felis = Ctenocephalides felis in vitro contact test with adult cat fleas; conditions: application rate 5 μg/cm^2 (=500 g/ha), after 48 h
Protocol: Ctenocephalides felis—In Vitro Contact Tests with Adult Cat Fleas
For the coating of the test tubes, 9 mg of active compound are first dissolved in 1 ml of acetone p.a. and then diluted to the desired concentration with acetone p.a. 250 μl of the solution are distributed homogeneously on the inner walls and the base of a 25 ml glass tube by turning and rocking on an orbital shaker (rocking rotation at 30 rpm for 2 h). With 900 ppm of active compound solution and internal surface area 44.7 cm^2, given homogeneous distribution, an area-based dose of 5 μg/cm^2 is achieved.
After the solvent has evaporated off, the tubes are populated with 5-10 adult cat fleas (Ctenocephalides felis), sealed with a perforated plastic lid and incubated in a horizontal position at room temperature and ambient humidity. After 48 h, efficacy is determined. To this end, the tubes are stood upright and the fleas are knocked to the base of the tube. Fleas which remain motionless at the base or move in an uncoordinated manner are considered to be dead or moribund.
100% efficacy means that all the fleas were dead or moribund. 0% efficacy means that no fleas were harmed.

Diabrotica balteata = Diabrotica balteata spray test; conditions: application rate 160 μg/well; beetle larvae on germinated wheat grains; after 7 days
Myzus persicae [1] = assay: Myzus persicae oral test; conditions: after 5 days
In short: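 Aphids fed through parafilm on compound formulation (acetone, diluted with water) mixed 50:150 μL with IPL41 insect medium (33%+15% sugar), using a mixed population. Efficacy was recorded after 5 days as % mortality (100% = all aphids killed).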

Myzus persicae [2] = assay: Myzus persicae spray test; conditions: application rate 500 g/ha; Chinese cabbage leaf discs; after 5 days
Nezara viridula = Nezara viridula spray test; conditions: application rate 500 g/ha; larvae on barley plants; after 4 days
Protocol: Nezara viridula—Spray Test
(§1) Solvent: 78.0 parts by weight of acetone • • 1.5 parts by weight of dimethylformamide
(§2) Emulsifier: alkylaryl polyglycol ether
(§3) To produce a suitable active compound formulation, 1 part by weight of active compound is dissolved with the specified parts by weight of solvent and made up to the desired concentration with water containing an emulsifier concentration of 1000 ppm. To produce further test concentrations, the formulation is diluted with emulsifier-containing water.
Barley plants (Hordeum vulgare) infected with larvae of the Southern green shield bug (Nezara viridula) are srayed with an active compound formulation of the desired concentration.
After 4 days, the efficacy in % is determined. 100% means that all of the shield bugs have been killed; 0% means that none of the shield bugs have been killed.

Nilaparvata lugens = Nilaparvata lugens test; conditions: application rate 500 g/ha; rice plants; after 4 days
Protocol: as §1, §2, §3
Rice plants (Oryza sativa) are sprayed with the active compound formulation of the desired concentration and then infected with the brown planthopper (Nilaparvata lugens).
After 4 days, the efficacy in % is determined. 100% means that all of the planthoppers have been killed; 0% means that none of the planthoppers have been killed.

Measured: efficacy

CC(=O)c1c([O-])[n+]2ccccc2n1Cc1cnc(Cl)s1 [Example I-008]
90%: Nezara viridula
100%: Ctenocephalides felis | Diabrotica balteata | Myzus persicae [1]; application rate 4 ppm | Myzus persicae [1]; application rate 20 ppm | Myzus persicae [2] | Nilaparvata lugens
